# Results from PubChem BioAssay AID1421 (Emory University Molecular Libraries Screening Center, 2008).
# Values joined by “and” are separate entries in the source; they are usually repeats but may differ in a detail not shown here. Identical values can stand only once. Active and inactive are the calls of the source. How the calls were made is not given here.
# Target: Prostaglandin E2 receptor EP2 subtype (Homo sapiens) (UniProt P43116)
# Assay: compounds shifting PGE2 potency at EP2 – cell-based, human EP2, PGE2 EC50 shift, dose response (AID 1421)
# Conditions: EP2-expressing cells, PGE2 EC50 shift by compound
# Prostaglandin E2 receptor EP2 subtype (Homo sapiens), sequence (P43116 whole entry, looked up): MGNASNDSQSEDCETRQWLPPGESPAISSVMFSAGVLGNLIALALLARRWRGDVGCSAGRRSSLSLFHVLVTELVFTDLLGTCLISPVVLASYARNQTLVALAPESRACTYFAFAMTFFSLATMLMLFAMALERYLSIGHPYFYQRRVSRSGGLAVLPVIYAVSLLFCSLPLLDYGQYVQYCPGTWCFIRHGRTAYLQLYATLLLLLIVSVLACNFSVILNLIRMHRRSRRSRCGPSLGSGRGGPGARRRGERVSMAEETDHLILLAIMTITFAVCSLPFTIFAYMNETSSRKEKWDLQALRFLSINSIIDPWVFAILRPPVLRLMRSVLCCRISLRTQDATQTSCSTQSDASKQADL
row,Structure (SMILES),outcome
1,CCC(C)N(C)C(=O)c1cc2ccccc2c(-c2ccccc2Cl)n1 (configuration not stated),active
2,CC(C)C(=O)c1cc2c(cc1NC(=O)c1ccccc1)OCCO2,active
3,CCOC(=O)c1cnc(SC)nc1Sc1ccccc1Cl,active
4,CCCCn1c(=O)c2ccccc2c2ccccc2c1=O,active
5,CCOP(=S)(OCC)Oc1nc(Cl)c(Cl)cc1Cl,active
6,Cc1ccc(-c2cc(C(F)(F)F)nn2-c2ccc(S(N)(=O)=O)cc2)cc1,active
7,O=C(O)c1ccc(-c2nc(-c3cccc(C(F)(F)F)c3)cs2)cc1,active
8,CCOC(=O)C1CCN(c2c(-c3ccccc3)c3cc(Cl)ccc3[nH]c2=O)CC1,active
9,O=C1CCC(c2ccccc2)=NN1Cc1c(F)cccc1Cl,active
10,NC(=NCCC[C@H](N)C(=O)O)N[N+](=O)[O-],active
11,CC1=CC(C)(C)N(C(=O)c2ccccc2)c2ccccc21,active

# Same assay, conditions: EP2-expressing cells, PGE2 EC50 shift by compound; measured here: PGE2 EC50 at 6.7 uM compound
row,Structure (SMILES),PGE2 EC50 with compound
1,Cc1ccccc1/C=C/c1nc2ccccc2c(=O)n1CCc1ccccc1,1.38 nM
2,COC(=O)c1c(NC(=O)c2cccs2)sc2c1CCC(C)C2 (configuration not stated),0.96 nM
3,C/C(Cl)=C/Cn1c(SC(C)C)nc2c1c(=O)[nH]c(=O)n2C,0.95 nM
4,CC(C)(C)N(Cc1ccccc1)C(=O)c1ccc(Br)o1,0.94 nM
5,S=c1[nH]nc(-c2ccc3ccccc3n2)n1Cc1ccccc1,0.91 nM
6,CN(Cc1c(C(=O)N2CCc3ccccc3C2)nc2ccc(Cl)cn12)C(C1CC1)C1CC1,0.9 nM
7,CCCCOc1c(Br)cc(/C=N/O)cc1OCC,0.93 nM
8,Cc1cc2cc(CN(Cc3nnnn3C3CCCCC3)CC3CCCO3)c(=O)[nH]c2cc1C (configuration not stated),0.97 nM
9,CC1CCN(C(C)C(=O)Nc2ccccc2-c2ccccc2)CC1 (configuration not stated),1.27 nM
10,Cc1noc(C)c1CSc1ncnc2sc3c(c12)CCCCC3,1.22 nM
11,COc1cccc(C2=NN(C(=O)c3cccs3)C(O)(C(F)(F)F)C2)c1 (configuration not stated),1.44 nM
12,CC(Sc1nc2ccccc2n1C)C(=O)NC(c1ccccc1)c1ccccc1 (configuration not stated),1.24 nM
13,CCC(C)N(C)C(=O)c1cc2ccccc2c(-c2ccccc2Cl)n1 (configuration not stated),0.93 nM and 1.18 nM
14,CC(Sc1cnc2ccccc2n1)C(=O)O (configuration not stated),2.61 nM
15,C#CCn1c(S(=O)(=O)Cc2ccc(F)cc2)nc(-c2ccccc2)c1-c1ccccc1,0.95 nM
16,CC1CCN(c2nc3c(c(=O)[nH]c(=O)n3C)n2CC(C)CSc2nnnn2-c2ccccc2)CC1 (configuration not stated),1.27 nM
17,COc1ccc(C)cc1NC(=O)C1CC(=O)OC12CCCCC2 (configuration not stated),0.67 nM
18,O=S(=O)(C=C(c1ccccc1)c1ccccc1)c1ccccc1,2.7 nM
19,CCOc1ccc(Cc2n[nH]c(=S)n2Cc2ccccc2)cc1,0.69 nM
20,CCCn1c(Nc2nc3ccccc3n2C)nc2ccccc21,1.02 nM
21,COC(=O)CSc1nc(Cc2ccccc2)nc2ccccc12,2.72 nM
22,c1ccc2c(c1)OCC(c1csc3ncnc(N4CCCCC4)c13)O2 (configuration not stated),2.54 nM
23,Cn1c(=O)c2c(SC3CCCC3)nc(C3CC3)nc2n(C)c1=O,0.61 nM

row,Structure (SMILES),PGE2 EC50 with compound
1,CN(C)Cc1ccc(F)cc1Sc1cc(Cl)ccc1Cl,0.77 nM
2,CC(C)C(=O)c1cc2c(cc1NC(=O)c1ccccc1)OCCO2,0.88 nM
3,Cc1ccc(CN2C(=O)/C(=C\c3ccc(C(=O)NCc4cccnc4)cc3)Oc3ccccc32)cc1,0.95 nM
4,O=C(OCc1ccccc1Cl)c1ccccc1C(=O)c1ccccc1,1.13 nM
5,O=C1CCCc2ccccc2N1Cc1cccc(Cl)c1,2.62 nM
6,CCCC(=O)Nc1ccccc1Sc1ncnc2scc(-c3ccccc3)c12,1.07 nM
7,Clc1ccccc1Cn1c(/C=C/c2ccco2)nc2ccccc21,0.99 nM
8,O=S(=O)(c1cccc(C(F)(F)F)c1)N1c2ccccc2-n2cccc2[C@H]1c1cccnc1,1.09 nM
9,CCOC(=O)c1c(NC(=O)CSc2ncnc3[nH]ncc23)sc2c1CCC(C)C2 (configuration not stated),0.67 nM
10,O=C(Nc1nc(-c2cccs2)c(-c2ccccc2)s1)c1ccco1,2.42 nM
11,CCCCOc1ccccc1Cn1c(=O)oc2ccccc21,0.81 nM
12,Cc1ccccc1Nc1c(-c2ccccn2)nc2ccccn12,1.55 nM
13,COc1ccc(CN2C(=O)CN=C2Nc2cc(C)ccc2C)cc1,1.04 nM
14,CC1CCCN(C(=O)CSc2cnc3ccccc3n2)C1 (configuration not stated),1.26 nM
15,CCOC(=O)C1=NN(c2cccc(C)c2)C2(S1)SC(C(C)=O)=C(C)N2c1ccccc1 (configuration not stated),0.31 nM
16,Cc1cccc(C)c1OCc1nnc(SCC(=O)Nc2nccs2)n1-c1ccccc1,1.01 nM
17,Cc1ccc2c(c1)N(Cc1cccc(Cl)c1)C(=O)c1cccnc1O2,0.95 nM
18,COc1ccc(C2CC(c3cccs3)=NN2C(=O)c2ccc(Br)o2)cc1 (configuration not stated),1.25 nM
19,C/C(=N\N(Cc1ccccc1)c1ccccc1)c1ccncc1,1.48 nM
20,COc1ccc(Cl)cc1-n1c(C)ccc1C,1.06 nM
21,COc1ccc2c(c1)C(C)=CC(C)(C)N2S(=O)(=O)c1ccc(Br)cc1,0.98 nM
22,N#CC1=C(S)N(c2ccccc2)C2(CCCCC2)NC1=O,1.12 nM
23,CCOC(=O)c1cnc(SC)nc1Sc1ccccc1Cl,1.07 nM
